In publication PMC11702208 (RSC Advances, 2025):

Columns and labels:
[1] = system: MOLT-4; assay: NCI cytotoxicity screen; assay type: cell-based, human
[2] = system: RPMI-8226; assay: NCI cytotoxicity screen; assay type: cell-based, human
[3] = system: SR; assay: NCI cytotoxicity screen; assay type: cell-based, human
[4] = system: A549/ATCC; assay: NCI cytotoxicity screen; assay type: cell-based, human
[5] = system: HOP-92; assay: NCI cytotoxicity screen; assay type: cell-based, human; settings: 10.0 μM one dose
[6] = system: NCI-H23; assay: NCI cytotoxicity screen; assay type: cell-based, human
[7] = system: NCI-H322M; assay: NCI cytotoxicity screen; assay type: cell-based, human
[8] = system: NCI-H460; assay: NCI cytotoxicity screen; assay type: cell-based, human
[9] = system: NCI-H522; assay: NCI cytotoxicity screen; assay type: cell-based, human
[10] = system: HCT-116; assay: NCI cytotoxicity screen; assay type: cell-based, human
[11] = system: HT29; assay: NCI cytotoxicity screen; assay type: cell-based, human; settings: HT-29
[12] = system: KM12; assay: NCI cytotoxicity screen; assay type: cell-based, human
[13] = system: SW-620; assay: NCI cytotoxicity screen; assay type: cell-based, human
[14] = system: SF-268; assay: NCI cytotoxicity screen; assay type: cell-based, human
[15] = system: SF-295; assay: NCI cytotoxicity screen; assay type: cell-based, human
[16] = system: SF-539; assay: NCI cytotoxicity screen; assay type: cell-based, human
[17] = system: SNB-19; assay: NCI cytotoxicity screen; assay type: cell-based, human
[18] = system: SNB-75; assay: NCI cytotoxicity screen; assay type: cell-based, human
[19] = system: U251; assay: NCI cytotoxicity screen; assay type: cell-based, human; settings: U-251
[20] = system: LOX IMVI; assay: NCI cytotoxicity screen; assay type: cell-based, human
[21] = system: MALME-3M; assay: NCI cytotoxicity screen; assay type: cell-based, human
[22] = system: M14; assay: NCI cytotoxicity screen; assay type: cell-based, human
[23] = system: SK-MEL-5; assay: NCI cytotoxicity screen; assay type: cell-based, human
[24] = system: UACC-62; assay: NCI cytotoxicity screen; assay type: cell-based, human
[25] = system: OVCAR-4; assay: NCI cytotoxicity screen; assay type: cell-based, human
[26] = system: OVCAR-5; assay: NCI cytotoxicity screen; assay type: cell-based, human
[27] = system: SK-OV-3; assay: NCI cytotoxicity screen; assay type: cell-based, human
[28] = system: 786-0; assay: NCI cytotoxicity screen; assay type: cell-based, human
[29] = system: ACHN; assay: NCI cytotoxicity screen; assay type: cell-based, human
[30] = system: CAKI-1; assay: NCI cytotoxicity screen; assay type: cell-based, human
[31] = system: RXF 393; assay: NCI cytotoxicity screen; assay type: cell-based, human
[32] = system: SN12C; assay: NCI cytotoxicity screen; assay type: cell-based, human
[33] = system: UO-31; assay: NCI cytotoxicity screen; assay type: cell-based, human
[34] = system: DU-145; assay: NCI cytotoxicity screen; assay type: cell-based, human
[35] = system: MCF7; assay: NCI cytotoxicity screen; assay type: cell-based, human
[36] = system: MDA-MB-231/ATCC; assay: NCI cytotoxicity screen; assay type: cell-based, human
[37] = system: HS 578T; assay: NCI cytotoxicity screen; assay type: cell-based, human
[38] = system: T-47D; assay: NCI cytotoxicity screen; assay type: cell-based, human
[39] = system: Leukemia subpanel tumor cell lines; assay: NCI cytotoxicity screen, subpanel; assay type: cell-based, human
[40] = system: NSC lung cancer subpanel tumor cell lines; assay: NCI cytotoxicity screen, subpanel; assay type: cell-based, human
[41] = system: Melanoma subpanel tumor cell lines; assay: NCI cytotoxicity screen, subpanel; assay type: cell-based, human
[42] = system: Prostate cancer subpanel tumor cell lines; assay: NCI cytotoxicity screen, subpanel; assay type: cell-based, human
[43] = system: Breast cancer subpanel tumor cell lines; assay: NCI cytotoxicity screen, subpanel; assay type: cell-based, human
[44] = system: HL-60(TB); assay: cells; settings: Homo sapiens
[45] = system: K-562; assay: cells; settings: Homo sapiens, K562
[46] = subpanel value, NSC lung cancer
[47] = subpanel value, Prostate cancer

How did the GI % ([1]; 10.0 μM one dose) turn out when CCN(CC)c1ccc(C=NNC(=O)CSc2nc3ccccc3c(=O)n2Cc2ccc(S(N)(=O)=O)cc2)c(O)c1 [Compound 5, 4-((2-((2-(2-(4-(Diethylamino)-2-hydroxybenzylidene)hydrazineyl)-2-oxoethyl)thio)-4-oxoquinazolin-3(4H)-yl)methyl)benzenesulfonamide] was run?
Its GI % is 89%.

What about the GI50 ([1]; Homo sapiens) of the same molecule?
Its GI50 is 0.372 µM.

And the GI % ([2]; 10.0 μM one dose)?
The GI % was 83%.

And the GI50 ([2]; Homo sapiens)?
Its GI50 is 0.521 µM.

What about the GI % ([3]; 10.0 μM one dose) of the same molecule?
The GI % was 90%.

What about the GI50 ([3]; Homo sapiens) of the same molecule?
The GI50 was 0.212 µM.

What about the GI % ([4]; 10.0 μM one dose, A549/ATCC) of the same molecule?
The GI % was 71%.

What about the GI50 ([4]; Homo sapiens, A549) of the same molecule?
Its GI50 is 1.57 µM.

What about the GI % [5] of the same molecule?
Its GI % is 42%.

What about the GI % ([6]; 10.0 μM one dose) of the same molecule?
Its GI % is 61%.

What about the GI50 ([6]; Homo sapiens) of the same molecule?
The GI50 was 1.96 µM.

What about the GI % ([7]; 10.0 μM one dose) of the same molecule?
The GI % was 67%.

What about the GI50 ([7]; Homo sapiens) of the same molecule?
Its GI50 is 0.575 µM.

And the GI % ([8]; 10.0 μM one dose)?
The GI % was 94%.

And the GI50 ([8]; Homo sapiens)?
Its GI50 is 0.424 µM.

What about the GI % ([9]; 10.0 μM one dose) of the same molecule?
Its GI % is 126%.

What about the GI50 ([9]; Homo sapiens) of the same molecule?
Its GI50 is 2.4 µM.

What about the GI % ([10]; 10.0 μM one dose) of the same molecule?
The GI % was 79%.

And the GI50 ([10]; Homo sapiens)?
The GI50 was 0.363 µM.

What about the GI % ([11]; 10.0 μM one dose) of the same molecule?
Its GI % is 68%.

And the GI50 ([11]; Homo sapiens)?
The GI50 was 3.01 µM.

What about the GI % ([12]; 10.0 μM one dose, KM-12) of the same molecule?
Its GI % is 85%.

What about the GI50 ([12]; Homo sapiens, KM12) of the same molecule?
The GI50 was 0.569 µM.

And the GI % ([13]; 10.0 μM one dose)?
Its GI % is 79%.

And the GI50 ([13]; Homo sapiens)?
The GI50 was 0.949 µM.

What about the GI % ([14]; 10.0 μM one dose) of the same molecule?
The GI % was 82%.

What about the GI50 ([14]; Homo sapiens) of the same molecule?
The GI50 was 0.766 µM.

What about the GI % ([15]; 10.0 μM one dose) of the same molecule?
Its GI % is 80%.

And the GI50 ([15]; Homo sapiens)?
Its GI50 is 1.47 µM.

And the GI % ([16]; 10.0 μM one dose)?
The GI % was 72%.

And the GI50 ([16]; Homo sapiens)?
Its GI50 is 1.26 µM.

What about the GI % ([17]; 10.0 μM one dose) of the same molecule?
The GI % was 59%.

What about the GI50 ([17]; Homo sapiens) of the same molecule?
The GI50 was 2.1 µM.

What about the GI % ([18]; 10.0 μM one dose) of the same molecule?
The GI % was 62%.

And the GI50 ([18]; Homo sapiens)?
Its GI50 is 2.86 µM.

And the GI % ([19]; 10.0 μM one dose)?
Its GI % is 76%.

What about the GI50 ([19]; Homo sapiens) of the same molecule?
The GI50 was 0.51 µM.

And the GI % ([20]; 10.0 μM one dose)?
The GI % was 99%.

What about the GI50 ([20]; Homo sapiens) of the same molecule?
Its GI50 is 0.387 µM.

What about the GI % ([21]; 10.0 μM one dose, MALME-3M) of the same molecule?
The GI % was 69%.

And the GI50 ([21]; Homo sapiens, Malme-3M)?
Its GI50 is 1.09 µM.

And the GI % ([22]; 10.0 μM one dose)?
Its GI % is 96%.

And the GI50 ([22]; Homo sapiens)?
The GI50 was 0.452 µM.

What about the GI % ([23]; 10.0 μM one dose) of the same molecule?
Its GI % is 95%.

And the GI50 ([23]; Homo sapiens)?
Its GI50 is 1.57 µM.

What about the GI % ([24]; 10.0 μM one dose) of the same molecule?
The GI % was 94%.

And the GI50 ([24]; Homo sapiens)?
The GI50 was 0.886 µM.

What about the GI % ([25]; 10.0 μM one dose, IGROV-4) of the same molecule?
Its GI % is 88%.

And the GI50 ([25]; Homo sapiens, OVCAR-4)?
Its GI50 is 0.311 µM.

What about the GI % ([26]; 10.0 μM one dose, IGROV-5) of the same molecule?
The GI % was 45%.

And the GI50 ([26]; Homo sapiens, OVCAR-5)?
Its GI50 is 2.09 µM.

And the GI % ([27]; 10.0 μM one dose)?
Its GI % is 79%.

What about the GI50 ([27]; Homo sapiens) of the same molecule?
The GI50 was 1.32 µM.

What about the GI % ([28]; 10.0 μM one dose) of the same molecule?
Its GI % is 68%.

What about the GI50 ([28]; Homo sapiens) of the same molecule?
The GI50 was 1.84 µM.

What about the GI % ([29]; 10.0 μM one dose) of the same molecule?
The GI % was 67%.

What about the GI50 ([29]; Homo sapiens) of the same molecule?
The GI50 was 1.58 µM.

What about the GI % ([30]; 10.0 μM one dose) of the same molecule?
Its GI % is 69%.

What about the GI50 ([30]; Homo sapiens) of the same molecule?
The GI50 was 1.02 µM.

What about the GI % ([31]; 10.0 μM one dose) of the same molecule?
Its GI % is 58%.

What about the GI50 ([31]; Homo sapiens) of the same molecule?
The GI50 was 2.5 µM.

And the GI % ([32]; 10.0 μM one dose, SN-12C)?
Its GI % is 68%.

What about the GI50 ([32]; Homo sapiens, SN12C) of the same molecule?
The GI50 was 1.93 µM.

What about the GI % ([33]; 10.0 μM one dose) of the same molecule?
Its GI % is 54%.

And the GI50 ([33]; Homo sapiens)?
Its GI50 is 2.89 µM.

What about the GI % ([34]; 10.0 μM one dose) of the same molecule?
Its GI % is 62%.

What about the GI50 ([34]; Homo sapiens) of the same molecule?
The GI50 was 0.944 µM.

And the GI % ([35]; 10.0 μM one dose, MCF-7)?
The GI % was 87%.

What about the GI50 ([35]; Homo sapiens, MCF7) of the same molecule?
The GI50 was 0.457 µM.

What about the GI % ([36]; 10.0 μM one dose, MDA-MB-231/ATCC) of the same molecule?
Its GI % is 75%.

And the GI50 ([36]; Homo sapiens, MDA-MB-231)?
Its GI50 is 0.643 µM.

What about the GI % ([37]; 10.0 μM one dose, HS-578T) of the same molecule?
The GI % was 37%.

And the GI50 ([37]; Homo sapiens, Hs-578T)?
The GI50 was 2.11 µM.

What about the GI % ([38]; 10.0 μM one dose, T-47D) of the same molecule?
Its GI % is 94%.

What about the GI50 ([38]; Homo sapiens, T47D) of the same molecule?
Its GI50 is 0.925 µM.

And the CC50 ([39]; Homo sapiens, read-out: LC50)?
Its CC50 is over 100 µM.

And the GI50 ([39]; Homo sapiens, subpanel value, Leukemia)?
The GI50 was 0.4 µM.

And the GI50 ([39]; subpanel value, Leukemia)?
The GI50 was 0.384 µM.

And the TGI ([39]; subpanel value, Leukemia)?
Its TGI is 68.371 µM.

What about the CC50 ([40]; Homo sapiens, read-out: LC50) of the same molecule?
Its CC50 is over 100 µM.

And the GI50 ([40]; Homo sapiens, subpanel value, NSC lung cancer)?
Its GI50 is 1.1 µM.

What about the GI50 [40, 46] of the same molecule?
Its GI50 is 1.06 µM.

What about the TGI [40, 46] of the same molecule?
Its TGI is “c (Compounds showed values > 100 μM)”.

What about the CC50 ([41]; Homo sapiens, read-out: LC50) of the same molecule?
The CC50 was over 100 µM.

And the GI50 ([41]; Homo sapiens, subpanel value, Melanoma)?
The GI50 was 1.5 µM.

And the GI50 ([41]; subpanel value, Melanoma)?
The GI50 was 1.5 µM.

And the TGI ([41]; subpanel value, Melanoma)?
Its TGI is 59.09 µM.

What about the CC50 ([42]; Homo sapiens, read-out: LC50) of the same molecule?
Its CC50 is over 100 µM.

And the GI50 ([42]; Homo sapiens, subpanel value, Prostate cancer)?
Its GI50 is 0.9 µM.

And the GI50 [42, 47]?
The GI50 was 0.886 µM.

And the TGI [42, 47]?
Its TGI is “c (Compounds showed values > 100 μM)”.

What about the CC50 ([43]; Homo sapiens, read-out: LC50) of the same molecule?
Its CC50 is over 100 µM.

And the GI50 ([43]; Homo sapiens, subpanel value, Breast cancer)?
Its GI50 is 1.2 µM.

And the GI50 ([43]; subpanel value, Breast cancer)?
The GI50 was 1.23 µM.

What about the TGI ([43]; subpanel value, Breast cancer) of the same molecule?
The TGI was 84.17 µM.

And the GI50 [44]?
The GI50 was 0.412 µM.

And the GI50 [45]?
The GI50 was 0.592 µM.
